Type in all cases: cell-based, mice
Data set [1] has as its system B-16 melanoma (ATCC CRL 6323) cell line. As to the kind of experiment: Melanin synthesis inhibition by forsythia suspensa active substances (IC50). The settings on record: for Melanin synthesis inhibition (in words): compared to other substances of Forsythia suspensa; for IC50: Mus musculus, B16, 120 h, read-out: Melanin synthesis inhibition IC50. As to the method: (§1) α-MSH, for an experiment for melanin synthesis inhibition, was dissolved in 10% DMSO (Dimethyl sulfoxide), and was used as 1 mM solution. B-16 melanoma (ATCC CRL 6323) cell line (derived from mice) was inoculated into a DMEM medium including 4.5 g/L of glucose, 10% serum, and 1% antibiotics, and was subcultured in 75[…] T-flask under 5% CO2 and at 37° C. The subcultured melanoma cell line was cultured in 75[…] T-flask for 24 hours, and was treated with 0.05% Trypsin containing 0.02% EDTA. Then, cells were separated, were inoculated in 75[…] T-flask, and were further cultured for 6 hours. Herein, the number of cells was 1×10^7 cells/flask. Then, a melanocyte-stimulating hormone was diluted in a DMEM medium to a final concentration 100[…]. Next, each of arctiin, arctigenin, matairesinol, oleanolic acid, betulinic acid, rutin, and ursolic acid was diluted in the DMEM medium to a final concentration of 10-1000 □/□ to carry out treatment of melanoma cells, and then, the cells were further cultured at 37° C. for 5 days. Next, the medium was obtained to measure absorbance at 475 nm, and through comparison of melanin synthesis, IC50 (□/□), that is, the density for inhibiting melanin synthesis by 50%, was calculated.

Data set [2] shares this test system. The experiment in a line: Melanin synthesis inhibition (%) by arctiin, arctigenin and the mixture thereof. The settings on record: n = 3, 5 days. As to the method: The subcultured melanoma cell line was cultured in 75[…] T-flask for 24 hours, and was treated with 0.05% Trypsin containing 0.02% EDTA. Then, cells were separated, were inoculated in 75[…] T-flask, and were further cultured for 6 hours. Herein, the number of cells was 1×10^7 cells/flask. Then, a melanocyte-stimulating hormone was diluted in a DMEM medium to a final concentration 100[…]. Next, each of arctiin, arctigenin, matairesinol, oleanolic acid, betulinic acid, rutin, and ursolic acid was diluted in the DMEM medium to a final concentration of 10-1000 □/□ to carry out treatment of melanoma cells, and then, the cells were further cultured at 37° C. for 5 days. […] An experiment of melanin synthesis inhibition was carried out in the same manner as described in EXPERIMENTAL EXAMPLE 1, except the following processes. […] Next, the medium was obtained to measure absorbance at 475 nm, and melanin synthesis was compared. A melanin synthesis inhibition (%) was calculated according to Mathematical Formula 1, with a control value of cell cultures including only a melanocyte stimulating hormone. […] [formula]

The test system of data set [3] is tyrosinase. As to the kind of experiment: Expression inhibition I of a melanin synthesis enzyme in melanocyte (tyrosinase band in gel). The settings on record: for Intensity of tyrosinase band: 100 □/□, 3 days culture, lower intensity = higher inhibition of tyrosinase biosynthesis, controls 123 (Control Exp 1) and 211 (Control Exp 2); for Inhibiting effect on biosynthesis of tyrosinase (in words): compared to Control Example 2 containing only a melanocyte stimulating hormone. As to the method: as §1
An experiment was carried out in the same manner as described in Experimental Example 1 except that each of arctiin, arctigenin, matairesinol, oleanolic acid, betulinic acid, rutin, and ursolic acid was added, and culture was further carried out for 3 days to obtain cells. Also, in order to compare the expression inhibition of a melanin synthesis enzyme, experiments on Control Example 1 containing no forsythia suspensa active substance and Control Example 2 containing a melanocyte stimulating hormone were carried out. Obtained cells were washed with sodium phosphate buffer two times, were treated with 0.1% triton X-100, and were reacted by a sonicator for 30 seconds. From the reaction solution, cell precipitate and supernatant were separated by using a high-speed centrifuge at 12,000 rpm for 30 minutes at 4° C. From the separated supernatant, protein was separated by using electrophoresis, and was reacted in a reaction solution containing 0.2% DOPA solution for about 8 hours. Then, the production of tyrosinase in gel was measured.

Data set [4] has as its system tyrosinase. As to the kind of experiment: Expression inhibition II of a melanin synthesis enzyme from melanocyte (tyrosinase band in gel). The settings on record: 100 □/□ substance with melanocyte stimulating hormone 100; 3 days culture; controls 123 and 211. As to the method:
The subcultured melanoma cell line was cultured in 75[…] T-flask for 24 hours, and was treated with 0.05% Trypsin containing 0.02% EDTA. Then, cells were separated, were inoculated in 75[…] T-flask, and were further cultured for 6 hours. Herein, the number of cells was 1×10^7 cells/flask. Then, a melanocyte-stimulating hormone was diluted in a DMEM medium to a final concentration 100[…]. Next, each of arctiin, arctigenin, matairesinol, oleanolic acid, betulinic acid, rutin, and ursolic acid was diluted in the DMEM medium to a final concentration of 10-1000 □/□ to carry out treatment of melanoma cells, and then, the cells were further cultured at 37° C. for 5 days. […] An expression inhibiting effect of a melanin synthesis enzyme from melanocyte, which can be achieved by arctiin, arctigenin, or the mixture thereof, was determined. An experiment was carried out in the same manner as described in Experimental Example 1 except that each of arctiin, arctigenin, a 1:3 mixture of arctiin and arctigenin, and a 3:1 mixture of arctiin and arctigenin prepared by Preparation Examples 1 and 2 was added and culture was further carried out for 3 days to obtain cells. […] And then, the production of tyrosinase was measured in electrophoresis gel.

Data set [5] relates to NIH/3T3 (ATCC CRL 1658) cell line. As to the kind of experiment: Cytotoxicity on fibroblast cell (MTT). The settings on record: for Cell viability (%): 12 hours, MTT. As to the method: On a fibroblast cell, toxicity of arctiin, arctigenin, a 1:3 mixture of arctiin and arctigenin, and a 3:1 mixture of arctiin and arctigenin prepared by Preparation Examples 1 and 2 was measured, respectively. NIH/3T3 (ATCC CRL 1658) cell line (derived from mice) as a fibroblast cell, which was purchased, was inoculated into a DMEM medium including 4.5 g/L of glucose, 10% serum, and 1% antibiotics, and was subcultured in 75[…] T-flask at 37° C. The subcultured cell line was cultured under 5% CO2 for 24 hours, and then it was treated with 0.05% Trypsin containing 0.02% EDTA. Then, cells were separated, were inoculated into 96-well-flask (1×10^4 cells/well) and stabilized through culture for 6 hours. To the cells, each of arctiin, arctigenin, a 1:3 mixture of arctiin and arctigenin, and a 3:1 mixture of arctiin and arctigenin was added as noted in Table 5, and culture was further carried out for 12 hours. After the culture, 10[…] of MTT (3-(4,5-dimethylthiazol-2-yl) 2,5-diphenyl tetrazolin bromide) solution (5[…]/□) was added in each well, and culture was carried out for 4 hours. Then, 100[…] of DMSO (Dimethyl sulfoxide) solution was added, and absorbance was measured at O.D. 570 nm to calculate the cell viability. […] Herein, the cell viability of 100% was based on the absorbance in the case of no additional substance.

The mark [6] stands for this setting: α-MSH-stimulated B-16 melanoma, 5 days, medium absorbance at 475 nm.

Where two headings read alike, the source gives them in different places.

Consider `COc1ccc(CC2COC(=O)C2Cc2ccc(O[C@@H]3O[C@H](CO)[C@@H](O)[C@H](O)[C@H]3O)c(OC)c2)cc1OC` (stereo partly shown) [Arctiin, 4-[(3,4-Dimethoxyphenyl)methyl]dihydro-3-[(4-Glucose-3-metoxyphenyl)methyl]-2(3H)-furanone], for which, in data set [1], the “Melanin synthesis inhibition (in words)” value is “most effective”. The “Melanin synthesis inhibition (%)” value in data set [2] (final concentration 60 □/□) is 67.3%; in data set [2] (final concentration 100 □/□), 78.5%; in data set [2] (final concentration 140 □/□), 80.3%; in data set [2] (final concentration 180 □/□), 84.2%. For the same compound, in the data set on tyrosinase [3], the “Intensity of tyrosinase band” value is recorded as 155. For the same compound, the “Inhibiting effect on biosynthesis of tyrosinase (in words)” value with tyrosinase [3] is “significantly high inhibiting effects”. Further, the “Strength of tyrosinase band” value with tyrosinase [4] was 155. In addition, the “Cell viabilities (range over tested concentrations)” value in data set [5] was 94-100%. Besides, the “Toxicity determination on cells” value in data set [5] was “non-toxic”.
As for `C[C@@H]1O[C@@H](OC[C@H]2O[C@@H](Oc3c(-c4ccc(O)c(O)c4)oc4cc(O)cc(O)c4c3=O)[C@H](O)[C@@H](O)[C@@H]2O)[C@H](O)[C@H](O)[C@H]1O` [Rutin], in data set [1], the IC50 (commonly the concentration needed to halve the response being measured) is below 500 mg/L. Further, the “Intensity of tyrosinase band” value in the data set on tyrosinase [3] was found to be 150.
Turning to `C=C(C)[C@@H]1CC[C@]2(C(=O)O)CC[C@]3(C)[C@H](CC[C@@H]4[C@@]5(C)CC[C@H](O)C(C)(C)[C@@H]5CC[C@]43C)[C@@H]12` [Betulinic acid], the IC50 in data set [1] (setting [6]) was below 500 mg/L. Further, the “Intensity of tyrosinase band” value in the data set on tyrosinase [3] stood at 170.
In the same order, the values of `CC1(C)CC[C@]2(C(=O)O)CC[C@]3(C)C(=CC[C@@H]4[C@@]5(C)CC[C@H](O)C(C)(C)[C@@H]5CC[C@]43C)[C@@H]2C1` [Oleanolic acid] are below 1000 mg/L and 200.
The corresponding values for `COc1cc(C[C@H]2COC(=O)[C@@H]2Cc2ccc(O)c(OC)c2)ccc1O` [Matairesinol] are below 200 mg/L and 180.
The corresponding values for `C[C@H]1[C@H](C)CC[C@]2(C(=O)O)CC[C@]3(C)C(=CC[C@@H]4[C@@]5(C)CC[C@H](O)C(C)(C)[C@@H]5CC[C@]43C)[C@H]12` [Ursolic acid] are below 500 mg/L and 180.
For `COc1cc(CC2C(=O)OCC2Cc2ccc(OC)c(OC)c2)ccc1O` (stereo not shown) [Arctigenin, 4-[(3,4-Dimethoxyphenyl)methyl]dihydro-3-[(4-hydroxy-3-metoxyphenyl)methyl]-2(3H)-furanone], the “Melanin synthesis inhibition (in words)” value in data set [1] was “most effective”. Further, the “Melanin synthesis inhibition (%)” value in data set [2] (final concentration 60 □/□) is on record as 66.8%; in data set [2] (final concentration 100 □/□), 79.6%; in data set [2] (final concentration 140 □/□), 81.3%; in data set [2] (final concentration 180 □/□), 84.3%. Besides, in the data set with tyrosinase [3], the “Intensity of tyrosinase band” value worked out at 135. In the data set with tyrosinase [3], the “Inhibiting effect on biosynthesis of tyrosinase (in words)” value is “significantly high inhibiting effects”. Also, the “Strength of tyrosinase band” value with tyrosinase [4] came to 135. The “Toxicity determination on cells” value in data set [5] (criteria of Table 6) is recorded as “non-toxic”. The “Cell viability (%)” value was 101.2% in data set [5] (final concentration 20 □/□); 101.0% in data set [5] (final concentration 60 □/□); 99.8% in data set [5] (final concentration 100 □/□); 99.6% in data set [5] (final concentration 140 □/□); 99.7% in data set [5] (final concentration 180 □/□).

The values are drawn from patent publication US20100104524A1, “COSMETIC COMPOSITION FOR SKIN WHITENING COMPRISING ARCTIIN, ARCTIGENIN OR THE MIXTURE THEREOF AS ACTIVE” (priority 2007, published 2010).
